Results published in patent publication US10758534B2 (Vertex Pharmaceuticals Incorporated, priority 2014, dated 2020).

Target: T1, F508del (Homo sapiens, UniProt P13569, DEL508-508)
T1 construct: expressed in transfected cells
Test: Protocol 2: FRET membrane potential optical assay (VIPR), identification of correction compounds
Assay type: cell-based
Conditions: Table 3; compounds of Table 1 as modulators of CFTR activity; protocol not stated
Summary of the method: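 Single-addition HTS format: F508del-expressing NIH3T3 cells pre-incubated 16 hrs at 37° C. ± compound, with 27° C. culture as positive control. Channel activation by forskolin 10 μM and genistein 20 μM upon switch to gluconate bath, pH 7.4; read-out is FRET-based depolarization signal.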

T1 sequence (P13569 with tags, fused parts or gaps DEL508-508): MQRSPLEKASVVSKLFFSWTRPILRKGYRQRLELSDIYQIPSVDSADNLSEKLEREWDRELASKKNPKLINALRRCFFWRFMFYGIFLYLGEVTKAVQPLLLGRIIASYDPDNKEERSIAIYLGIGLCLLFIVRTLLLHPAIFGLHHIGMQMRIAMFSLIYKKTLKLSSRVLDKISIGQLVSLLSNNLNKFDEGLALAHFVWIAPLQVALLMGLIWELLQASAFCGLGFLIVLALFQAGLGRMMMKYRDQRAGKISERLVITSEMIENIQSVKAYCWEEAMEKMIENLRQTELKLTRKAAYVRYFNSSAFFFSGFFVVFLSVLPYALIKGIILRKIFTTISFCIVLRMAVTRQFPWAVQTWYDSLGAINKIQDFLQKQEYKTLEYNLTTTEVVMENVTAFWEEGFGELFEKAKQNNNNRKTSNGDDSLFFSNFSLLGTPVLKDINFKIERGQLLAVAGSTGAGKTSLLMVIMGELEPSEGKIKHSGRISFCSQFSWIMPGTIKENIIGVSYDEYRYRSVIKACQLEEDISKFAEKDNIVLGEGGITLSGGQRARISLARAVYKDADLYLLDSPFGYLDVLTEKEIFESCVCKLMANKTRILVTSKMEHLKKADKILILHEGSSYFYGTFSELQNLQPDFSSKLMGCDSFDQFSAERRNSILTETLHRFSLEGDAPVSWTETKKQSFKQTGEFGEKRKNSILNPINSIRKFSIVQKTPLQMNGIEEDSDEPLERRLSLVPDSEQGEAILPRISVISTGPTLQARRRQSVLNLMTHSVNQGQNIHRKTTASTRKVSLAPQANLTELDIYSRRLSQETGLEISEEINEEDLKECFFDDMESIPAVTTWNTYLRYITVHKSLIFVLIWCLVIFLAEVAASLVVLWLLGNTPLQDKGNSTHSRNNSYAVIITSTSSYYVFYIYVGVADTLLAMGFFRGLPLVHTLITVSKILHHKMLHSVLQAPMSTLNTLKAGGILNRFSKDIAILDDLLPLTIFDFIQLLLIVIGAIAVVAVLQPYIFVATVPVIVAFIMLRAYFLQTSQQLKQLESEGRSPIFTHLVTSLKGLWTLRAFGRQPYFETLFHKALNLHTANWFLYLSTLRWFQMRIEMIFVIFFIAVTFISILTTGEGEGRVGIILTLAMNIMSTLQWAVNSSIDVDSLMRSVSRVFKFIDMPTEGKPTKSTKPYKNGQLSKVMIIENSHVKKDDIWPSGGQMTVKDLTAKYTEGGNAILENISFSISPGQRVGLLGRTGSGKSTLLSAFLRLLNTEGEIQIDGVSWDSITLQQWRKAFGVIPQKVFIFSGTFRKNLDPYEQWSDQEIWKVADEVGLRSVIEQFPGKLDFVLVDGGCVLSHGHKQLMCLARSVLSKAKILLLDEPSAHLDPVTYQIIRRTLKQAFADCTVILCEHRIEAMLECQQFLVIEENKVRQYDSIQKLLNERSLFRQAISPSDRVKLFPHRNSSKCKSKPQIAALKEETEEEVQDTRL

SMILES	EC30
Cc1cc(C)c(Oc2nc(C(C)(C)C)ccc2C(=O)NS(=O)(=O)c2cn[nH]c2)c(C)c1 [Compound 401, 6-tert-butyl-N-(1H-pyrazol-4-ylsulfonyl)-2-(2,4,6-trimethylphenoxy)pyridine-3-carboxamide]	+++ (“+++” means <3 uM)
CC(C)Oc1ccc(-c2ccc(C(=O)NS(=O)(=O)c3ccc[nH]c3=O)c(N3C[C@H](C)CC3(C)C)n2)cn1 [Compound 403, 6-(6-isopropoxy-3-pyridyl)-N-[(2-oxo-1H-pyridin-3-yl)sulfonyl]-2-[(4R)-2,2,4-trimethylpyrrolidin-1-yl]pyridine-3-carboxamide]	++ (“++” means between 3 uM and 10 uM)
Cc1cc(C)c(Cn2c(C(=O)NS(=O)(=O)c3cccc(N)n3)cc3cc(C(C)C)ccc32)c(C)c1 [Compound 404, N-[(6-amino-2-pyridyl)sulfonyl]-5-isopropyl-1-[(2,4,6-trimethylphenyl)methyl]indole-2-carboxamide]	+++ (“+++” means <3 uM)
COc1ccc2c(c1)CN(Cc1c(C)cc(C)cc1C)C2(C)C(=O)NS(=O)(=O)c1cccc(N)n1 (stereo not shown) [Compound 406, N-[(6-amino-2-pyridyl)sulfonyl]-5-methoxy-1-methyl-2-[(2,4,6-trimethylphenyl)methyl]isoindoline-1-carboxamide]	+++ (“+++” means <3 uM)
CC(C)COc1cc(F)cc(-c2ccc(C(=O)NS(=O)(=O)c3cccc(N)n3)c(N3CCC[C@@H](C)C3)n2)c1 [Compound 408, N-[(6-amino-2-pyridyl)sulfonyl]-6-(3-fluoro-5-isobutoxy-phenyl)-2-[(3R)-3-methyl-1-piperidyl]pyridine-3-carboxamide]	+++ (“+++” means <3 uM)
CCOc1ccc(-c2ccc(C(=O)NS(=O)(=O)c3cccc(N)n3)c(-c3ccc(C)cc3)n2)cc1 [Compound 409, N-[(6-amino-2-pyridyl)sulfonyl]-6-(4-ethoxyphenyl)-2-(p-tolyl)pyridine-3-carboxamide]	+ (“+” means greater than 10 uM)
CC(C)CN(C)c1ccc(-c2ccc(C(=O)NS(=O)(=O)c3cccc(N)n3)c(N3CC(C)CC3(C)C)n2)cn1 (stereo not shown) [Compound 412, N-[(6-amino-2-pyridyl)sulfonyl]-6-[6-[isobutyl(methyl)amino]-3-pyridyl]-2-(2,2,4-trimethylpyrrolidin-1-yl)pyridine-3-carboxamide]	+++ (“+++” means <3 uM)
COc1cccc(-c2ccc(C(=O)NS(=O)(=O)c3cccc(N)n3)c(Oc3c(C)cc(C)cc3C)n2)c1 [Compound 413, N-[(6-amino-2-pyridyl)sulfonyl]-6-(3-methoxyphenyl)-2-(2,4,6-trimethylphenoxy)pyridine-3-carboxamide]	+++ (“+++” means <3 uM)
CC(C)COc1cc(F)cc(-c2ccc(C(=O)NS(=O)(=O)c3ccn[nH]3)c(N3[C@H](C)CC[C@@H]3C)n2)c1 [Compound 415, 2-[(2S,5R)-2,5-dimethylpyrrolidin-1-yl]-6-(3-fluoro-5-isobutoxy-phenyl)-N-(1H-pyrazol-5-ylsulfonyl)pyridine-3-carboxamide]	+++ (“+++” means <3 uM)
CC(C)COc1cc(F)cc(-c2ccc(C(=O)NS(=O)(=O)c3cccc(N)n3)c(OC3C(C)CCC3C)n2)c1 (stereo not shown) [Compound 416, N-[(6-amino-2-pyridyl)sulfonyl]-2-(2,5-dimethylcyclopentoxy)-6-(3-fluoro-5-isobutoxy-phenyl)pyridine-3-carboxamide]	+++ (“+++” means <3 uM)
CC(C)COc1cc(F)cc(-c2ccc(C(=O)NS(=O)(=O)c3cccc(N)n3)c(N3CCCCCC3)n2)c1 [Compound 418, N-[(6-amino-2-pyridyl)sulfonyl]-2-(azepan-1-yl)-6-(3-fluoro-5-isobutoxy-phenyl)pyridine-3-carboxamide]	+++ (“+++” means <3 uM)
COCC1CCCN(c2nc(-c3cc(F)cc(OCC(C)C)c3)ccc2C(=O)NS(=O)(=O)c2cccc(N)n2)C1 (stereo not shown) [Compound 419, N-[(6-amino-2-pyridyl)sulfonyl]-6-(3-fluoro-5-isobutoxy-phenyl)-2-[3-(methoxymethyl)-1-piperidyl]pyridine-3-carboxamide]	+++ (“+++” means <3 uM)
CC(C)COc1cc(F)cc(-c2ccc(C(=O)NS(=O)(=O)c3cccc(N)n3)c(N3C4CCC3CC4)n2)c1 [Compound 420, N-[(6-amino-2-pyridyl)sulfonyl]-2-(7-azabicyclo[2.2.1]heptan-7-yl)-6-(3-fluoro-5-isobutoxy-phenyl)pyridine-3-carboxamide]	+++ (“+++” means <3 uM)
CC(C)COc1cc(F)cc(-c2ccc(C(=O)NS(=O)(=O)c3cccc(N)n3)c(N3CCC[C@@H]3C)n2)c1 [Compound 421, N-[(6-amino-2-pyridyl)sulfonyl]-6-(3-fluoro-5-isobutoxy-phenyl)-2-[(2S)-2-methylpyrrolidin-1-yl]pyridine-3-carboxamide]	+++ (“+++” means <3 uM)

Next, values leading:

EC30	SMILES
++ (“++” means between 3 uM and 10 uM)	CC(C)Oc1cncc(-c2ccc(C(=O)NS(=O)(=O)c3cccc(N)n3)c(N3[C@H](C)CC[C@@H]3C)n2)c1 [Compound 400, N-[(6-amino-2-pyridyl)sulfonyl]-2-[(2S,5R)-2,5-dimethylpyrrolidin-1-yl]-6-(5-isopropoxy-3-pyridyl)pyridine-3-carboxamide]
+++ (“+++” means <3 uM)	CC1CN(c2nc(-c3ccnc(OC(C)C)c3)ccc2C(=O)NS(=O)(=O)c2cccc(N)n2)C(C)(C)C1 (stereo not shown) [Compound 402, N-[(6-amino-2-pyridyl)sulfonyl]-6-(2-isopropoxy-4-pyridyl)-2-(2,2,4-trimethylpyrrolidin-1-yl)pyridine-3-carboxamide]
+++ (“+++” means <3 uM)	COc1cc(F)ccc1-c1ccc(C(=O)NS(=O)(=O)c2cc[nH]n2)c(Oc2c(C)cc(C)cc2C)n1 [Compound 405, 6-(4-fluoro-2-methoxy-phenyl)-N-(1H-pyrazol-3-ylsulfonyl)-2-(2,4,6-trimethylphenoxy)pyridine-3-carboxamide]
++ (“++” means between 3 uM and 10 uM)	Cc1ccc(-c2nc(C(C)(C)C)ccc2C(=O)NS(=O)(=O)c2ccccn2)cc1 [Compound 407, 6-tert-butyl-2-(p-tolyl)-N-(2-pyridylsulfonyl)pyridine-3-carboxamide]
+++ (“+++” means <3 uM)	CCOc1cccc2c1CN(Cc1c(C)cc(C)cc1C)C2(C)C(=O)NS(=O)(=O)c1ccc[nH]c1=O (stereo not shown) [Compound 410, 4-ethoxy-1-methyl-N-[(2-oxo-1H-pyridin-3-yl)sulfonyl]-2-[(2,4,6-trimethylphenyl)methyl]isoindoline-1-carboxamide]
+++ (“+++” means <3 uM)	CC(C)(C)c1ccc(C(=O)NS(=O)(=O)c2cccc(N)n2)c(C2CCCCC2)n1 [Compound 411, N-[(6-amino-2-pyridyl)sulfonyl]-6-tert-butyl-2-cyclohexyl-pyridine-3-carboxamide]
+++ (“+++” means <3 uM)	CC(C)c1ccc(-c2ccc(C(=O)NS(=O)(=O)c3ccn[nH]3)c(N3[C@H](C)CC[C@@H]3C)n2)cc1 [Compound 414, 2-[(2S,5R)-2,5-dimethylpyrrolidin-1-yl]-6-(4-isopropylphenyl)-N-(1H-pyrazol-5-ylsulfonyl)pyridine-3-carboxamide]
++ (“++” means between 3 uM and 10 uM)	CC(C)(C)c1ccc(C(=O)NS(=O)(=O)c2cccc(N)n2)c(-c2ccc(F)cc2)n1 [Compound 417, N-[(6-amino-2-pyridyl)sulfonyl]-6-tert-butyl-2-(4-fluorophenyl)pyridine-3-carboxamide]
